According to patent US20140315834A1 (Medicon Pharmaceuticals, Inc., priority 2012, published 2014):
Where two headings read alike, the source gives them in different places.

How the values were obtained:
[1] = tested on: A549; assay type: in vivo, mice; settings: Lung A549 ot, ip
[2] = tested on: MDA; test: MDA breast sc xenograft; settings: 120 mg/kg/d × 22 d, ip
[3] = tested on: U87 glioblastoma cells; test: Apoptosis by Annexin V-FITC / propidium iodide staining; assay type: cell-based; settings: 24 hours; PGIA 4 200 μM, PV 116 40 μM, alone or combined
Method: The potential synergy between PV and PGIA in inhibiting the growth of U87 glioblastoma cells was assessed by isobolographic analysis. After treatment with PV 116 or PGIA 4 alone or in combination for 24 hours, the following as determined: a) cell growth using the MTT assay (Promega, Madison, Wis.) and b) apoptosis by staining with Annexin V-FITC (Invitrogen) and propidium iodide 0.5 μg/ml and analyzing the fluorescence intensity by FACS caliber.

[4] = tested on: BT-20; test: BT-20 breast sc xenograft; settings: Breast BT-20 sc; 120 mg/kg/d × 28 d, ip
[5] = tested on: AGS; assay type: in vivo, mice; settings: Gastric AGS sc, ip
[6] = tested on: HT-29; test: HT-29 colon sc xenograft; settings: Colon HT-29 sc; 120 mg/kg/d × 12 d, ip
[7] = assay type: in vivo, Lewis rats
[8] = Ulcerative colitis (IBD), DSS; settings: 300 mg/kg/d × 10 d, po
[9] = tested on: HCT116; test: HCT116 colon xenograft; settings: Colon HCT116 sc; 100 mg/kg/d × 12 d, ip
[10] = tested on: MCF7; test: MCF7 breast sc xenograft
[11] = in vivo; settings: mouse
[12] = tested on: U87 glioblastoma cell line; test: 24-hour growth inhibition of glioblastoma cells; assay type: cell-based; settings: 24 h, read-out: 24-h 1c50
[13] = tested on: U87; test: U87 glioma sc xenograft; settings: 20 mg/kg/d alone × 12 d, ip
[14] = tested on: A431; assay type: in vivo, mice; settings: Skin A431 id; Topical, 2 week
[15] = Pharmacokinetics of phospho-sulindac in wild type and Ces1c knockout mice; assay type: in vivo; settings: intraperitoneal and intravenous administration
Description: This is reflected in the enhanced distribution of intact phospho-sulindac in various tissues.

[16] = Hydrolysis of PS in PLLA(10K)-PEG(2K) nanocarrier, control pharmacokinetic experiments; assay type: in vivo
Method: Protection of phospho-NSAIDs from hydrolysis by encapsulation in nanocarriers enhances their anti-cancer efficacy. For example, PS was formulated in a nanocarrier suitable for iv administration [PLLA(10K)-PEG(2K)]. […] Nude mice bearing subcutaneous A549 human lung cancer xenografts were then given intravenously PS 60 mg/kg/d ×2d/week and the equimolar dose of sulindac (40 mg/kg.) Sulindac was ineffective in inhibiting the growth of the xenografts whereas PS was (32% vs. 75%; p<0.012). […] In other words, the anticancer efficacy of PS is not the result of its being metabolized to sulindac (Xie G, et al., Brit J. Pharmacol. 2012; 165:2152-66; Wong et al., J Pharmacol Exp Ther. 2012; 340:422-32).

[17] = tested on: platelets; test: Ex vivo platelet aggregometry, collagen agonist; assay type: in vivo, mice; settings: 40% MTD; collagen 1 μg/mL
Method: Platelet aggregation was studied using an Aggregometer (Chrono-Log, Havertown, Pa.). […] Maximum inhibition of aggregation occurred at 1 hour post treatment (FIG. 34).

[18] = tested on: AGS human gastric xenografts; settings: nude mice; alone or with esterase inhibitor; cited from earlier work
[19] = tested on: A549 human lung cancer xenografts; test: A549 sc xenografts, i.v. PS in nanocarrier vs sulindac; assay type: in vivo, mice; settings: PS in nanocarrier, intravenously 60 mg/kg/d ×2d/week
[20] = tested on: A549 human lung cancer cells; test: Aerosol PS in orthotopic GFP-A549 lung cancer model; assay type: in vivo, mice; settings: aerosol 50 mg/mL PS for 8 minutes, treatment group
Method: PS dissolved in ethanol was placed in the baffle and aerosolized with the ultrasonic atomizer. […] The air flow in the system used to deliver by inhalation the test drug to mice was controlled by an inlet air regulator and a vacuum pump which draws air from the system.
Mice received 50 mg/mL PS for 8 minutes. After one week of treatment, 1 million A549 human lung cancer cells stably expressing green fluorescence protein (GFP-A549) were injected into the left lung through a 5 mm incision) was made to the left side of the chest. GFP allows the detection and quantification of these cells. […] Inhalation treatment, suspended for 2 days post-surgery, continued for 6 weeks.

[21] = tested on: lung and pancreatic carcinoma (Lewis lung carcinoma); test: Efficacy in Ces1c knockout vs wild type mice; assay type: in vivo
[22] = Ferric chloride-induced carotid artery thrombus; assay type: in vivo, mice; settings: oral, 40% of MTD, injury one hour later; FIG. 32B
Method: In this model the carotid artery is briefly exposed to FeCl3 leading to thrombus formation at the site of the injury and occlusion of blood flow. […] Flow rate was then measured for 30 minutes (FIG. 32).

[23] = Drug levels after inhalation vs oral administration of PS; assay type: in vivo, mice

What does the source list for CCCC(CCC)C(=O)Oc1ccc(COP(=O)(OCC)OCC)cc1 [Compound 116, Phosphovalproic Acid]?
Reduction ([1]; 100 mg/kg/d × 6 week): 80%; Reduction [2]: 63%; fold-increase of annexinV (+) cells [3]: 3.0 fold; Reduction [4]: 37%; Reduction ([5]; 100 mg/kg/d × 3 week): 81%; Reduction [6]: 40%

What does the source list for “phospho-aspirin glycerol amide [Compound 194]”?
Latency, sec Mean ± SEM ([7]; rat, in vivo, ip, 150 mg/kg): 19.92 ± 0.78 s; Reduction [8]: 30-48%; Reduction [9]: 18%; Reduction ([10]; 120 mg/kg/d × 29 d, po, prevention): 55%; Reduction ([10]; 500 mg/kg/d × 12 d, ip, treatment): 80-100%

Which results are given for CCOP(=O)(OCC)OCC(CNC(=O)C(C)c1ccc(CC(C)C)cc1)OP(=O)(OCC)OCC (stereo not shown) [Compound 4, Phospho-Ibuprofen Gylcerol Amide]?
MTD at 12 days ([11]; nude, ip): 20 mg/kg/day; MTD at 1 week ([11]; wt (wild type), po): > 600 mg/kg/day; IC50 [12]: 87 µM; fold-increase of annexinV (+) cells [3]: 1.8 fold; Reduction [13]: 52%

For CCOP(=O)(OCC)OCCCCNC(=O)C(C)c1ccc(CC(C)C)cc1 (stereo not shown) [Compound 1, Phosphoric acid diethyl ester 4-[2-(4-isobutyl-phenyl)-propionylamino]-butyl ester], which Reduction ([1]; 160 mg/kg/d × 6 week) is on record?
The Reduction was 75%.

What about the MTD at 6 week ([11]; nude, ip) of the same compound?
Its MTD at 6 week is 160 mg/kg/day.

What about the “Latency, sec Mean ± SEM” value ([7]; Dose 120 mg/kg ip, 30 minutes prior to testing) of the same compound?
Its value is 23.42 ± 1.16 s.

And the Reduction [14]?
The Reduction was 46%.

What about the Reduction ([5]; 160 mg/kg/d × 3 week) of the same compound?
The Reduction was 34%.

Which results are given for CCOP(=O)(OCC)OCCCCOC(=O)CC1=C(C)/C(=C/c2ccc([S+](C)[O-])cc2)c2ccc(F)cc21 (stereo not shown) [Compound 96, Phospho-Sulindac]?
less inactivation in Ces1c knockout mice vs wild type [15]: approximately 2 fold; PS in nanocarrier hydrolyzed to sulindac [16]: < 6%; time of maximum inhibition of aggregation post treatment [17]: 1 h; Bleeding time (150 mg/kg orally, 1 hour after administration): 88 ± 7 s; prolongation of the bleeding time (treated mice): no prolongation of the bleeding time; inhibition of growth of AGS xenografts [18]: 28%; inhibition of growth of xenografts [19]: 75%; analgesic effect ([7]; carboxylic esters, systemic, also topical in a hydrogel): effective; death rate by the end of the study [20]: less than 10%; efficacy against Lewis lung carcinoma (LLC) in Ces −/− mice ([21]; 150 mg/kg, i.p., subcutaneous LLC tumors, FIG. 35): more efficacious; more effective in inhibiting growth of lung and pancreatic carcinoma in Ces1c knockout vs wild type mice ([21]; mouse, in vivo): approximately 2 fold; carotid artery blood flow following injury with FeCl3 [22]: flow rate is maintained; PS levels in plasma ([23]; after inhalation or oral gavage): Undetectable; level of intact PS in the lungs ([23]; inhalational 6.5 mg/kg body weight): > 20 nmol/g; total drug levels (PS plus metabolites) in lungs, inhalation compared to oral ([23]; inhalational 6.5 mg/kg vs oral 150 mg/kg): significantly higher; level of intact PS in the lungs ([23]; oral 150 mg/kg body weight): < 2 nmol/g
